Assay results: patent US7214708B2, “Synthetic discodermolide analogs” (priority 2004, dated 2007)

Assays:
A549 = test: inhibition of proliferation of tumor cell line A549; assay type: cell-based; conditions: A549 human lung cancer cell line; some results are the average of multiple runs
Description: (§1) The biological activities of compounds I were evaluated by measuring their inhibitory effect on the proliferation of various tumor cell lines. MCF-7, A549, SKOV-3, and CCRF-CEM are human breast cancer, lung cancer, ovary cancer, and leukemia cell lines, respectively. HL-60/MX2 is a leukemia cell line resistant to mitoxantrone. A549 t12 is an A549 subline resistant to paclitaxel. CCRF-CEM/PTX, CCRF-CEM/VBL, and CCRF-CEM/VP16 are CCRF-CEM sublines resistant to paclitaxel, vinblastine, and VP-16 (etoposide), respectively. NCI/ADR (also referred to as NCI/ADR-Res) is a multi-drug resistant human breast cancer cell line.
(§2) The biological activity of compound II-A was evaluated by measuring its inhibitory effect on the proliferation of various tumor cell lines. (The characteristics of the various cell lines employed was previously described hereinabove.)
(§3) The biological activity of compounds III was evaluated by measuring their inhibitory effect on the proliferation of various tumor cell lines. The characteristics of the cells lines used has been described hereinabove.
(§4) The biological activity of compounds IV was evaluated by measuring their inhibitory effect on the proliferation of various tumor cell lines. The characteristics of the cell lines used has been discussed hereinabove.

NCI/ADR = test: inhibition of proliferation of tumor cell line NCI/ADR; assay type: cell-based; conditions: NCI/ADR (NCI/ADR-Res) multi-drug resistant human breast cancer cell line; some results are the average of multiple runs
Description: as §1, §2, §3, §4

A549 t12 = test: inhibition of proliferation of tumor cell line A549 t12; assay type: cell-based, human; conditions: A549 t12, A549 subline resistant to paclitaxel, some results are the average of multiple runs
Description: as §1, §2, §4

MCF-7 = test: inhibition of proliferation of tumor cell line MCF-7; assay type: cell-based; conditions: MCF-7 human breast cancer cell line, some results are the average of multiple runs
Description: as §1, §2, §3, §4

SKOV-3 = test: inhibition of proliferation of tumor cell line SKOV-3; assay type: cell-based; conditions: SKOV-3 human ovary cancer cell line, some results are the average of multiple runs
Description: as §1, §2, §3

CCRF-CEM/PTX = test: inhibition of proliferation of tumor cell line CCRF-CEM/PTX; assay type: cell-based, human; conditions: CCRF-CEM subline resistant to paclitaxel, some results are the average of multiple runs
Description: as §1, §2, §4

CCRF-CEM = test: inhibition of proliferation of tumor cell line CCRF-CEM; assay type: cell-based; conditions: CCRF-CEM human leukemia cell line; some results are the average of multiple runs
Description: as §1, §2, §4

CCFR-CEM/VP16 = test: inhibition of proliferation of tumor cell line CCRF-CEM/VP16; assay type: cell-based, human; conditions: CCRF-CEM subline resistant to VP-16 (etoposide), some results are the average of multiple runs
Description: as §1, §2, §4

HL-60/MX2 = test: inhibition of proliferation of tumor cell line HL-60/MX2; assay type: cell-based; conditions: HL-60/MX2 leukemia cell line resistant to mitoxantrone, some results are the average of multiple runs
Description: as §1, §2, §4

CCRF-CEM/VBL = test: inhibition of proliferation of tumor cell line CCRF-CEM/VBL; assay type: cell-based, human; conditions: CCRF-CEM subline resistant to vinblastine, some results are the average of multiple runs
Description: as §1, §2, §4

Work on `C=C/C=C\[C@H](C)[C@H](OC(N)=O)[C@@H](C)[C@H](O)[C@@H](C)C/C(C)=C\[C@H](C)[C@@H](O)[C@@H](C)/C=C\[C@H](C[C@@H]1OC(=O)[C@H](C)[C@@H](O)[C@H]1C)OCOCCOC` [I-B] yielded an IC50 (A549) of 6.7 nM, an IC50 (NCI/ADR) of 140 nM and an IC50 (A549 t12; Homo sapiens) of 5.8 nM. It also gave an IC50 (MCF-7; MCF7) of 5.5 nM.
`C=C/C=C\[C@H](C)[C@H](OC(N)=O)[C@@H](C)[C@H](O)[C@@H](C)C/C(C)=C\[C@H](C)[C@@H](O)[C@@H](C)/C=C(/C)[C@@H](O)C[C@@H]1OC(=O)[C@H](C)[C@@H](O)[C@H]1C` [II-A, 8-methyldiscodermolide] showed an IC50 (SKOV-3; SK-OV-3) of 29 nM, an IC50 (CCRF-CEM/PTX; Homo sapiens) of 42.3 nM and an IC50 (A549) of 12 nM. The IC50 (NCI/ADR) was 610 nM, the IC50 (CCRF-CEM) was 5.6 nM and the IC50 (CCFR-CEM/VP16; Homo sapiens) was 9 nM. The IC50 (A549 t12; Homo sapiens) was 31 nM, the IC50 (HL-60/MX2; Homo sapiens, HL60/MX2) was 11 nM and the IC50 (CCRF-CEM/VBL; Homo sapiens) was 152 nM. For the same molecule, the IC50 (MCF-7; MCF7) was 7.7 nM.
`C=C/C=C\[C@H](C)[C@H](OC(N)=O)[C@@H](C)[C@H](O)[C@@H](C)C/C(C)=C\[C@H](C)[C@@H](O)[C@@H](C)/C=C\[C@@H](O)C[C@H]1CCC(=O)O1` [III-A] was tested, and the IC50 (SKOV-3; SK-OV-3) was 14 nM, the IC50 (A549) was 4.9 nM and the IC50 (NCI/ADR) was 350 nM. The IC50 (MCF-7; MCF7) was 2.9 nM.
`CC/C=C\[C@H](C)[C@H](OC(N)=O)[C@@H](C)[C@H](O)[C@@H](C)C/C(C)=C\[C@H](C)[C@@H](O)[C@@H](C)/C=C\[C@@H](O)C[C@H]1CCC(=O)O1` [III-B] showed an IC50 (SKOV-3; SK-OV-3) of 15 nM, an IC50 (A549) of 46 nM and an IC50 (NCI/ADR) of 730 nM. For the same molecule, the IC50 (MCF-7; MCF7) was 6.4 nM.
In the case of `CC/C=C\[C@H](C)[C@H](OC(N)=O)[C@@H](C)[C@H](O)[C@@H](C)C/C(C)=C\[C@H](C)[C@@H](O)[C@@H](C)/C=C\[C@@H](O)C[C@@H]1OC(=O)[C@H](C)[C@@H](OC)[C@H]1C` [IV-A], the IC50 (CCRF-CEM/PTX; Homo sapiens) is reported as 65 nM, the IC50 (A549) is reported as 11 nM and the IC50 (NCI/ADR) is reported as 140 nM. The IC50 (CCRF-CEM) was 8.6 nM, the IC50 (CCFR-CEM/VP16; Homo sapiens) was 12 nM and the IC50 (A549 t12; Homo sapiens) was 50 nM. It also gave an IC50 (HL-60/MX2; Homo sapiens, HL60/MX2) of 12 nM, an IC50 (CCRF-CEM/VBL; Homo sapiens) of 209 nM and an IC50 (MCF-7; MCF7) of 5.8 nM.
Molecule `CC/C=C\[C@H](C)[C@H](OC(N)=O)[C@@H](C)[C@H](O)[C@@H](C)C/C(C)=C\[C@H](C)[C@@H](O)[C@@H](C)/C=C\[C@@H](O)C[C@@H]1OC(=O)[C@H](C)C[C@H]1C` [IV-B] has an IC50 (CCRF-CEM/PTX; Homo sapiens) of 79 nM, an IC50 (A549) of 6.5 nM and an IC50 (NCI/ADR) of 250 nM. It also gave an IC50 (CCRF-CEM) of 4.4 nM, an IC50 (CCFR-CEM/VP16; Homo sapiens) of 8.4 nM and an IC50 (A549 t12; Homo sapiens) of 12 nM. For the same molecule, the IC50 (HL-60/MX2; Homo sapiens, HL60/MX2) was 4.1 nM, the IC50 (CCRF-CEM/VBL; Homo sapiens) was 416 nM and the IC50 (MCF-7; MCF7) was 3.8 nM.
(+)-Discodermolide [reference compound] showed an IC50 (SKOV-3) of 31.7 nM, an IC50 (CCRF-CEM/PTX) of 92.8 nM and an IC50 (A549) of 24.4 nM. For the same molecule, the IC50 (NCI/ADR) was 247 nM, the IC50 (CCRF-CEM) was 14.8 nM and the IC50 (CCFR-CEM/VP16) was 53 nM. For the same molecule, the IC50 (A549 t12) was 26.7 nM, the IC50 (HL-60/MX2) was 150 nM and the IC50 (CCRF-CEM/VBL) was 158 nM. It also gave an IC50 (MCF-7) of 14.1 nM.
